Measured values as given in patent US11857555B2, “Aqueous pharmaceutical formulation of hydrocortisone sodium phosphate and monothioglycerol” (ANTARES PHARMA, INC., priority 2020, dated 2024).

Tests used:
[1] = Forced degradation of HCP API under stress conditions (0.1 N HCl, 0.1 N NaOH, dry heat); assay type: physicochemical; settings: 3 different stress conditions: 0.1 N HCl, qualitative
Protocol: To develop this method, Hydrocortisone sodium phosphate API was kept under stress conditions. These stress conditions included treatment with 0.1 N HCl, 0.1 N NaOH and dry heat. This was performed to investigate the nature of API and its compatibility with the stress conditions. It also helped generate degradation products to assess the specificity of the HPLC method under development. Information on degradation products and the conditions used to generate them was used to optimize the method for better resolution of such degradation products on chromatogram. FIGS. 3A-3C show chromatograms of HCP under stress conditions.
The proportions in which the degradants formed depended on the stress condition. Stress studies performed on the API were done for qualitative purpose only.

[2] = light, strong acids and alkalies; cited from earlier work

Row | Compound | forced degradation outcome (in words) [1] | stability (in words) [2]
1 | C[C@]12CCC(=O)C=C1CC[C@@H]1[C@@H]2[C@@H](O)C[C@@]2(C)[C@H]1CC[C@]2(O)C(=O)COP(=O)([O-])[O-].[Na+].[Na+] [HCP, Hydrocortisone sodium phosphate] | formation of Hydrocortisone, other common degradants | 
2 | C[C@]12CCC(=O)C=C1CC[C@@H]1[C@@H]2[C@@H](O)C[C@@]2(C)[C@H]1CC[C@]2(O)C(=O)CO [Hydrocortisone] |  | sensitive to light and unstable in strong acids and alkalies
